Source: ChEMBL document CHEMBL3352092, “Ferrier sulfamidoglycosylation of glycals catalyzed by nitrosonium tetrafluoroborate: towards new carbonic anhydrase glycoinhibitors” (Bioorg Med Chem, 2014)

Tests used:
[1] = molecular target: Carbonic anhydrase 9 (Homo sapiens, UniProt Q16790); assay: Inhibition of human recombinant CA9 catalytic domain by stopped flow CO2 hydration assay
[2] = molecular target: Carbonic anhydrase 1 (Homo sapiens, UniProt P00915); assay: Inhibition of human full length CA1 by stopped flow CO2 hydration assay
Carbonic anhydrase 1, sequence (P00915 whole entry): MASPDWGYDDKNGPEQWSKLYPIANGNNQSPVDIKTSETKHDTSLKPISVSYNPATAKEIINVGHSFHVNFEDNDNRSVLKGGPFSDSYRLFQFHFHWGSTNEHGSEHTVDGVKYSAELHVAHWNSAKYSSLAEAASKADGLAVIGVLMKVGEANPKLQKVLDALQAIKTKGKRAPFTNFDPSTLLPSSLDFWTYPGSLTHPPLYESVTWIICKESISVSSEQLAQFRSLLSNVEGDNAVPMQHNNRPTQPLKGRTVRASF

[3] = molecular target: Carbonic anhydrase 2 (Homo sapiens, UniProt P00918); assay: Inhibition of human full length CA2 by stopped flow CO2 hydration assay

**Q.** What does the source list for `CC(=O)OC[C@H]1OC(NS(=O)(=O)NO)C=C[C@@H]1OC(C)=O` (stereo partly drawn)?
**A.** Ki [1]: 90 nM; Ki [2]: 813 nM

**Q.** With `CC(=O)OC[C@H]1OC(NS(=O)(=O)NO)C=C[C@H]1OC(C)=O` (stereo partly drawn) as the compound, how does the Ki [1] read?
**A.** 79 nM

**Q.** And the Ki [2]?
**A.** 752 nM

**Q.** With `CC(=O)O[C@H]1C=CC(NS(=O)(=O)NO)OC1` (stereo partly drawn) as the compound, how does the Ki [1] read?
**A.** 54 nM

**Q.** What about the Ki [2] of the same compound?
**A.** > 10000 nM

**Q.** What about the Ki [3] of the same compound?
**A.** > 10000 nM

**Q.** For `CC(=O)O[C@@H]1C=CC(NS(=O)(=O)NO)OC1` (stereo partly drawn), which Ki [1] is on record?
**A.** 44 nM

**Q.** What about the Ki [2] of the same compound?
**A.** > 10000 nM

**Q.** And the Ki [3]?
**A.** > 10000 nM

**Q.** Which Ki [1] does the source give for `CC(=O)O[C@@H]1C=CC(NS(=O)(=O)NO)O[C@H]1C` (stereo partly drawn) here?
**A.** 47 nM

**Q.** What about the Ki [2] of the same compound?
**A.** > 10000 nM

**Q.** With `O=S(=O)(NO)NC1C=C[C@H](O)[C@@H](CO)O1` (stereo partly drawn) as the compound, how does the Ki [1] read?
**A.** 9 nM

**Q.** And the Ki [2]?
**A.** > 10000 nM

**Q.** With `O=S(=O)(NO)NC1C=C[C@@H](O)[C@@H](CO)O1` (stereo partly drawn) as the compound, how does the Ki [1] read?
**A.** 44 nM

**Q.** And the Ki [2]?
**A.** 917 nM

**Q.** `O=S(=O)(NO)NC1C=C[C@H](O)CO1` (stereo partly drawn) was tested. Which Ki [1] did it give?
**A.** 8 nM

**Q.** And the Ki [2]?
**A.** 927 nM

**Q.** Which results are given for `O=S(=O)(NO)NC1C=C[C@@H](O)CO1` (stereo partly drawn)?
**A.** Ki [1]: 9 nM; Ki [2]: > 10000 nM

**Q.** How did the Ki [1] turn out when `C[C@@H]1OC(NS(=O)(=O)NO)C=C[C@H]1O` (stereo partly drawn) was run?
**A.** 8 nM

**Q.** And the Ki [2]?
**A.** > 10000 nM

**Q.** What about the Ki [3] of the same compound?
**A.** > 10000 nM
